Data as given in ChEMBL document CHEMBL1157545, “Synthesis and cancer cell cytotoxicity of substituted xanthenes” (Bioorg Med Chem, 2010).
pIC50: −log10 of the molar value. Activity calls are given as the source filed them. The calls are words filed in the database; no cut-off is given here.

Experiments:
[1] = system: DU-145; test: Cytotoxicity against human DU145 cells after 48 hrs; format: functional, cell-based; conditions: DU-145, 48 h
[2] = system: MCF7; test: Cytotoxicity against human MCF7 cells after 48 hrs; format: functional, cell-based; conditions: MCF7, 48 h
[3] = system: HeLa; test: Cytotoxicity against human HeLa cells after 48 hrs; format: functional, cell-based
[4] = target: DNA topoisomerase 2-alpha (Homo sapiens) (UniProt P11388); test: Inhibition of human DNA topoisomerase 2 at 50 uM by DNA relaxation assay
[5] = target: DNA topoisomerase 2-alpha (Homo sapiens) (UniProt P11388); test: Inhibition of human DNA topoisomerase 2 at 250 uM by DNA relaxation assay
[6] = system: Nucleic Acid; test: Binding affinity to DNA assessed as DNA intercalation at 50 uM; format: nucleic-acid assay
[7] = system: Nucleic Acid; test: Binding affinity to DNA assessed as DNA intercalation at 250 uM; format: nucleic-acid assay

Sequence of DNA topoisomerase 2-alpha (Homo sapiens) (P11388 whole entry): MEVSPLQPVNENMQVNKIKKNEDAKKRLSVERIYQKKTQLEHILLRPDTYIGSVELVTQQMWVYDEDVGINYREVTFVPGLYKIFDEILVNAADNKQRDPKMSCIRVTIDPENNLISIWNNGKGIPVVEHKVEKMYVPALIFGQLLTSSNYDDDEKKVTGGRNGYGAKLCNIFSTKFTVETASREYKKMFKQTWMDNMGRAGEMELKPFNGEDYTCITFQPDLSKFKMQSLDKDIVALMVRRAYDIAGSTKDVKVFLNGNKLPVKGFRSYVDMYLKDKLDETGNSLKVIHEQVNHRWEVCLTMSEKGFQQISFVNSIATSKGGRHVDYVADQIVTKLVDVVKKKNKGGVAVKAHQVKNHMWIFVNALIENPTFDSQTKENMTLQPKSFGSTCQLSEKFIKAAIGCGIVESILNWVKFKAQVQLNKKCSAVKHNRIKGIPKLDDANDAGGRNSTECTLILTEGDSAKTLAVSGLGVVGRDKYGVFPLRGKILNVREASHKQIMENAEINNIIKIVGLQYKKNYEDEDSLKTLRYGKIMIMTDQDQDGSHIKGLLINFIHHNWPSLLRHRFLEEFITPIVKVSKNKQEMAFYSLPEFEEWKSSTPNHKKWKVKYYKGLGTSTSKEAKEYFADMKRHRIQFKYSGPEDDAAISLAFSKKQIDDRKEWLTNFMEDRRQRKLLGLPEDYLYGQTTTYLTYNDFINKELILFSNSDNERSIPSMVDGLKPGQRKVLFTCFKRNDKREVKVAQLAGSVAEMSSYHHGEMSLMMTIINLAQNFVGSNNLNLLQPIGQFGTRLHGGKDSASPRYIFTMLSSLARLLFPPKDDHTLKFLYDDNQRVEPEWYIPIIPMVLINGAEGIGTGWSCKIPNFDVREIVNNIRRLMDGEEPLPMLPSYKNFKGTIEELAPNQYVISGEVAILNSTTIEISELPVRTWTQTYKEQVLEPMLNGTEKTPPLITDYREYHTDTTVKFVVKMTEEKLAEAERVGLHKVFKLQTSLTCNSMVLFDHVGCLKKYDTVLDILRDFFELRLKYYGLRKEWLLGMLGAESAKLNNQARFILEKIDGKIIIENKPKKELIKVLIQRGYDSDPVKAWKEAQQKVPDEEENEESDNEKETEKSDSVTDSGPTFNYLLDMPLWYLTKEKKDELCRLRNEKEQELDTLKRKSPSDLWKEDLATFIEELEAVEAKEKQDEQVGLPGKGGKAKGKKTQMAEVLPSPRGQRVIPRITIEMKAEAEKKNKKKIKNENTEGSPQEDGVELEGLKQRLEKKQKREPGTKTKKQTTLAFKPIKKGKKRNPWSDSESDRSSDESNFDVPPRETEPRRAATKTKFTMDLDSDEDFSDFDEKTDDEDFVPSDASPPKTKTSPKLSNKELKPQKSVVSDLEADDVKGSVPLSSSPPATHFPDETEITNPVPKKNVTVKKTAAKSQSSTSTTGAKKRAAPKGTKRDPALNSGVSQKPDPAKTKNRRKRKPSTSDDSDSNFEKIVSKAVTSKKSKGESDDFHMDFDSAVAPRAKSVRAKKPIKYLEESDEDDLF

With `C=CC1(O)c2ccc(C(=O)N3CCN(C)CC3)cc2Oc2ccc(F)cc21` (configuration not stated) the pIC50 [1] was less than 3.52, the pIC50 [2] was 3.60 and the pIC50 [3] was 3.64. The inhibition [4] was “inactive”, the inhibition [5] was “inactive” and the Activity [6] was “inactive”. The Activity [7] was “inactive”.
For `OC1(c2ccccc2)c2ccccc2Oc2ccccc21`, the pIC50 [1] was less than 3.30, the pIC50 [2] was less than 3.30 and the pIC50 [3] was less than 3.30. For the same molecule, the Activity [6] was “inactive” and the Activity [7] was “inactive”.
For `CN(C)C(=O)c1ccc2c(c1)Oc1ccccc1C2(O)c1ccccc1` (configuration not stated), the pIC50 [1] was 4.23, the pIC50 [2] was 4.21 and the pIC50 [3] was 4.17. The inhibition [4] was “inactive”, the inhibition [5] was “inactive” and the Activity [6] was “inactive”. The Activity [7] was “inactive”.
Molecule `CCC1(O)c2ccc(C(=O)N3CCN(C)CC3)cc2Oc2ccc(F)cc21` (configuration not stated) has a pIC50 [1] of 3.86, a pIC50 [2] of 3.86 and a pIC50 [3] of 3.90. For the same molecule, the Activity [6] was “inactive” and the Activity [7] was “inactive”.
`O=C(c1ccc2c(c1)Oc1ccccc1C2(O)c1ccccc1)N1CCOCC1` (configuration not stated) was tested, and the pIC50 [1] was 3.90, the pIC50 [2] was 3.87 and the pIC50 [3] was 3.92. The Activity [6] was “inactive” and the Activity [7] was “inactive”.
In the case of `COc1cccc(C2(O)c3ccc(C(=O)N4CCN(C)CC4)cc3Oc3ccc(Cl)cc32)c1` (configuration not stated), the pIC50 [1] was 4.04, the pIC50 [2] was 4.14 and the pIC50 [3] was 4.03. For the same molecule, the Activity [6] was “inactive” and the Activity [7] was “inactive”.
Work on `CN1CCN(C(=O)c2ccc3c(c2)Oc2ccccc2C3(O)c2ccccc2)CC1` (configuration not stated) yielded a pIC50 [1] of less than 3.52, a pIC50 [2] of 3.77 and a pIC50 [3] of 3.77. For the same molecule, the Activity [6] was “inactive” and the Activity [7] was “inactive”.
`CN1CCN(C(=O)c2ccc3c(c2)Oc2ccccc2C3(C)O)CC1` (configuration not stated) showed a pIC50 [1] of 3.92, a pIC50 [2] of 3.94 and a pIC50 [3] of 3.92. For the same molecule, the Activity [6] was “inactive” and the Activity [7] was “inactive”.
`CCC1(O)c2ccccc2Oc2cc(C(=O)N3CCN(C)CC3)ccc21` (configuration not stated) was tested, and the pIC50 [1] was 3.71, the pIC50 [2] was 3.66 and the pIC50 [3] was 3.67. For the same molecule, the Activity [6] was “inactive” and the Activity [7] was “inactive”.
In the case of `COc1cccc(C2(O)c3ccccc3Oc3cc(C(=O)N4CCOCC4)ccc32)c1` (configuration not stated), the pIC50 [1] was 3.79, the pIC50 [2] was 3.82 and the pIC50 [3] was 3.82. For the same molecule, the Activity [6] was “inactive” and the Activity [7] was “inactive”.
`CCC1(O)c2ccc(C(=O)N3CCN(C)CC3)cc2Oc2ccc(Cl)cc21` (configuration not stated) showed a pIC50 [1] of 3.84, a pIC50 [2] of 3.74 and a pIC50 [3] of 3.82. The Activity [6] was “inactive” and the Activity [7] was “inactive”.
In the case of `CN1CCN(C(=O)c2ccc3c(c2)Oc2ccc(Cl)cc2C3(O)c2ccccc2)CC1` (configuration not stated), the pIC50 [1] was 3.93, the pIC50 [2] was 4.02 and the pIC50 [3] was 3.80. The Activity [6] was “inactive” and the Activity [7] was “inactive”.
`COc1cccc(C2(O)c3ccc(C(=O)N4CCN(C)CC4)cc3Oc3ccc(F)cc32)c1` (configuration not stated) gave a pIC50 [1] of 4.26, a pIC50 [2] of 4.34 and a pIC50 [3] of 4.07. The inhibition [4] was “inactive”, the inhibition [5] was “inactive” and the Activity [6] was “inactive”. For the same molecule, the Activity [7] was “inactive”.
For `COc1cccc(C2(O)c3ccccc3Oc3cc(C(=O)N4CCN(C)CC4)ccc32)c1` (configuration not stated), the pIC50 [1] was 3.86, the pIC50 [2] was 3.90 and the pIC50 [3] was 3.95. The Activity [6] was “inactive” and the Activity [7] was “inactive”.
Molecule `O=c1c2ccccc2oc2ccccc12` [XANTHONE] has a pIC50 [1] of less than 3.30, a pIC50 [2] of less than 3.30 and a pIC50 [3] of less than 3.30. The Activity [6] was “inactive” and the Activity [7] was “inactive”.
Molecule `C=CC1(O)c2ccccc2Oc2cc(C(=O)N3CCN(C)CC3)ccc21` (configuration not stated) has a pIC50 [1] of 4.20, a pIC50 [2] of 4.13 and a pIC50 [3] of 4.13. For the same molecule, the Activity [6] was “inactive” and the Activity [7] was “inactive”.
For `CN1CCN(C(=O)c2ccc3c(c2)Oc2ccc(Cl)cc2C3(C)O)CC1` (configuration not stated), the pIC50 [1] was 3.62, the pIC50 [2] was 3.80 and the pIC50 [3] was 3.58. For the same molecule, the Activity [6] was “inactive” and the Activity [7] was “inactive”.
Molecule `CN1CCN(C(=O)c2ccc3c(c2)Oc2ccc(F)cc2C3(C)O)CC1` (configuration not stated) has a pIC50 [1] of less than 3.52, a pIC50 [2] of 3.68 and a pIC50 [3] of less than 3.52. The Activity [6] was “inactive” and the Activity [7] was “inactive”.
For `COc1cccc(C2(O)c3ccccc3Oc3cc(C(=O)N(C)C)ccc32)c1` (configuration not stated), the pIC50 [1] was 4.44, the pIC50 [2] was 4.30 and the pIC50 [3] was 4.36. For the same molecule, the inhibition [4] was “inactive”, the inhibition [5] was “inactive” and the Activity [6] was “inactive”. The Activity [7] was “inactive”.
For `C=CC1(O)c2ccc(C(=O)N3CCN(C)CC3)cc2Oc2ccc(Cl)cc21` (configuration not stated), the pIC50 [1] was 3.68, the pIC50 [2] was less than 3.30 and the pIC50 [3] was 3.55. The Activity [6] was “inactive” and the Activity [7] was “inactive”.
For `CN1CCN(C(=O)c2ccc3c(c2)Oc2ccc(F)cc2C3(O)c2ccccc2)CC1` (configuration not stated), the pIC50 [1] was 4.08, the pIC50 [2] was 4.21 and the pIC50 [3] was 3.96. For the same molecule, the inhibition [4] was “inactive”, the inhibition [5] was “inactive” and the Activity [6] was “inactive”. The Activity [7] was “inactive”.
In the case of `COc1cccc(C2(O)c3ccccc3Oc3ccccc32)c1`, the pIC50 [1] was 4.23, the pIC50 [2] was 4.09 and the pIC50 [3] was 4.07. The inhibition [4] was “inactive”, the inhibition [5] was “inactive” and the Activity [6] was “inactive”. For the same molecule, the Activity [7] was “inactive”.
